From publication PMC9569420 (Communications Biology, 2022)
“And” between values parts separate entries of the source, which are not always exact repeats. Identical values can stand only once. Like-named read-outs stand apart in the source and are kept apart here.

Key:
PLSCR1 [1] = type: cell-based, monkey; conditions: 30 min; drugs 10 μM, immunoglobulins 10 μg/ml
[2] = system: Primary vaginal epithelial cells; assay: cell proliferation and viability, ~50% confluent; conditions: 1 μM, 120 h (Fig 1d source data)
PLSCR1 [3] = assay: PLSCR1 phosphorylation (IP/western), HSV-2 infected HaCaT cells; type: cell-based, human; conditions: 10 μM, 30 min
PtdS and Akt = assay: translocation of PtdS and Akt to the outer leaflet (microscopy), HSV-2 infected HaCat; type: cell-based, human; conditions: 10µM
HaCat cells [4] = assay: apoptosis assay (activated caspases, SYTOX Green); type: cell-based, human; conditions: 10 µM, 24 h (Fig 2b source data)
Procedure: Cell proliferation and viability were determined using the Cell Titer 96 Aqueous One Solution and optical density was determined using a SpectraMax M5e Molecular Devices multidetection microplate reader. […] The cells were then fixed and stained for activated caspases (red) and SYTOX Green (for integrity of plasma membrane) by Image-iT^TM LIVE red Poly Caspase Detection kit. Nuclei were stained with Hoechst. Images were acquired by laser confocal microscope ZeissLive/DuoScan equipped with oil immersion objectives 63 × 1.1 and captured in an optical slice of 0.37 µm with appropriate filters. Alternatively, immunoblots were prepared and probed with antibodies to cleaved PARP-1 or cleaved caspase 8.

HaCat cells [5] = assay: viability of confluent cells; type: cell-based, human; conditions: 10 μM, 72 and 120 h
TTBK1 = target: T1, TTBK1 (Homo sapiens, UniProt Q5TCY1); assay: HotSpot kinase assay; type: biochemical; conditions: read-out: IC50 (M) of Control Compound
T1 construct: purchased Reaction Biology Corporation
Procedure: (§1) Kinase activity were performed by Reaction Biology Corporation using the “HotSpot” assay platform modified from the published procedure.

TTBK2 = target: T2, TTBK2 (Homo sapiens, UniProt Q6IQ55); assay: HotSpot kinase assay; type: biochemical; conditions: read-out: IC50 (M) of Control Compound
T2 construct: purchased Reaction Biology Corporation
Procedure: as §1

TGFBR2 = target: T3, TGFBR2 (Homo sapiens, UniProt P37173); assay: HotSpot kinase assay; type: biochemical; conditions: read-out: IC50 (M) of Control Compound
T3 construct: purchased Reaction Biology Corporation
Procedure: as §1

ERK1 = target: T4, ERK1 (Homo sapiens, UniProt P27361); assay: HotSpot kinase assay; type: biochemical; conditions: read-out: IC50 (M) of Control Compound
T4 construct: purchased Reaction Biology Corporation
Procedure: as §1

Akt, PDPK1, PLCγ = conditions: apyrase 10 U/ml
TRPM7/CHAK1 = target: T5, TRPM7/CHAK1 (Homo sapiens, UniProt Q96QT4); assay: HotSpot kinase assay; type: biochemical; conditions: read-out: IC50 (M) of Control Compound
T5 construct: purchased Reaction Biology Corporation
Procedure: as §1

EIF2AK1 = target: T6, EIF2AK1 (Homo sapiens, UniProt Q9BQI3); assay: HotSpot kinase assay; type: biochemical; conditions: read-out: IC50 (M) of Control Compound
T6 construct: purchased Reaction Biology Corporation
Procedure: as §1

T4 sequence (P27361 whole entry): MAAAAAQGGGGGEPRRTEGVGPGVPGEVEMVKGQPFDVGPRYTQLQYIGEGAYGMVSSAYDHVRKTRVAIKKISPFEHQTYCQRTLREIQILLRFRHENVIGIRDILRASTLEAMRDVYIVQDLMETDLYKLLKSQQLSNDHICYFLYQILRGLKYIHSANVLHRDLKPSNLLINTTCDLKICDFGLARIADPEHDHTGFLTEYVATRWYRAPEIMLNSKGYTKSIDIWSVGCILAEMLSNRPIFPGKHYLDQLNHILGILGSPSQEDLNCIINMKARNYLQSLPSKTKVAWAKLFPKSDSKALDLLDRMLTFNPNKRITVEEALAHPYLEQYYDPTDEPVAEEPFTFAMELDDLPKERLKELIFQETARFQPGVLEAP
T6 sequence (Q9BQI3 whole entry): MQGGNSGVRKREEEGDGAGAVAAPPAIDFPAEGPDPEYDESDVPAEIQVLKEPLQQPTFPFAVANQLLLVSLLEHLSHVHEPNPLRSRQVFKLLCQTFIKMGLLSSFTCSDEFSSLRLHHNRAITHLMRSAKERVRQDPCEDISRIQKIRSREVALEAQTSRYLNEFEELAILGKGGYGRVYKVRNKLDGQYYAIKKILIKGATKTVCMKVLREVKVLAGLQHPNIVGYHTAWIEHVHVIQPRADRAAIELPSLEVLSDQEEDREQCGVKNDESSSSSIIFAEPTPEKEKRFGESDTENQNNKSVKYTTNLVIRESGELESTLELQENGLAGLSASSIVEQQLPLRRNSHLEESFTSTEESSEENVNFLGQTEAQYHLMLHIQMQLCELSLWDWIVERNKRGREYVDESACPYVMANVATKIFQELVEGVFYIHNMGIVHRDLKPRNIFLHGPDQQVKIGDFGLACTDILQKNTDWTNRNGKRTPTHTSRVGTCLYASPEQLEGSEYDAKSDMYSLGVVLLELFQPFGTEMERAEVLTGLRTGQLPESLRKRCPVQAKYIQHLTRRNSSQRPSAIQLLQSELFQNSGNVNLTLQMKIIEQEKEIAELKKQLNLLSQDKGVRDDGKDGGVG
T3 sequence (P37173 23-567): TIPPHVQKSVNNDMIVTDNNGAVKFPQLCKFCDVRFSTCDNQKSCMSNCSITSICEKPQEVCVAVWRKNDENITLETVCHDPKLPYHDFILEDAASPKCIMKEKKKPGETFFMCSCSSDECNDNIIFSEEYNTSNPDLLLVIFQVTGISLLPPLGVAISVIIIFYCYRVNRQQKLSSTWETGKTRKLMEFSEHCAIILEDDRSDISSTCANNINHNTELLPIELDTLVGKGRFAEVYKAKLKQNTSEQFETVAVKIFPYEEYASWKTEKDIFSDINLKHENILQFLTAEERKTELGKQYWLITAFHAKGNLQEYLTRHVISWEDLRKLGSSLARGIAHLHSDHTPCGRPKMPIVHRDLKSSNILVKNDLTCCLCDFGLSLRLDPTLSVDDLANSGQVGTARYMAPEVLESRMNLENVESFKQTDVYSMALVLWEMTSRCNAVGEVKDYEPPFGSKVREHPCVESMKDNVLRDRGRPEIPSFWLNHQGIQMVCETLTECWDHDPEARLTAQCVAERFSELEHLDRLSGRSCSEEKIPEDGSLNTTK
T5 sequence (Q96QT4 whole entry): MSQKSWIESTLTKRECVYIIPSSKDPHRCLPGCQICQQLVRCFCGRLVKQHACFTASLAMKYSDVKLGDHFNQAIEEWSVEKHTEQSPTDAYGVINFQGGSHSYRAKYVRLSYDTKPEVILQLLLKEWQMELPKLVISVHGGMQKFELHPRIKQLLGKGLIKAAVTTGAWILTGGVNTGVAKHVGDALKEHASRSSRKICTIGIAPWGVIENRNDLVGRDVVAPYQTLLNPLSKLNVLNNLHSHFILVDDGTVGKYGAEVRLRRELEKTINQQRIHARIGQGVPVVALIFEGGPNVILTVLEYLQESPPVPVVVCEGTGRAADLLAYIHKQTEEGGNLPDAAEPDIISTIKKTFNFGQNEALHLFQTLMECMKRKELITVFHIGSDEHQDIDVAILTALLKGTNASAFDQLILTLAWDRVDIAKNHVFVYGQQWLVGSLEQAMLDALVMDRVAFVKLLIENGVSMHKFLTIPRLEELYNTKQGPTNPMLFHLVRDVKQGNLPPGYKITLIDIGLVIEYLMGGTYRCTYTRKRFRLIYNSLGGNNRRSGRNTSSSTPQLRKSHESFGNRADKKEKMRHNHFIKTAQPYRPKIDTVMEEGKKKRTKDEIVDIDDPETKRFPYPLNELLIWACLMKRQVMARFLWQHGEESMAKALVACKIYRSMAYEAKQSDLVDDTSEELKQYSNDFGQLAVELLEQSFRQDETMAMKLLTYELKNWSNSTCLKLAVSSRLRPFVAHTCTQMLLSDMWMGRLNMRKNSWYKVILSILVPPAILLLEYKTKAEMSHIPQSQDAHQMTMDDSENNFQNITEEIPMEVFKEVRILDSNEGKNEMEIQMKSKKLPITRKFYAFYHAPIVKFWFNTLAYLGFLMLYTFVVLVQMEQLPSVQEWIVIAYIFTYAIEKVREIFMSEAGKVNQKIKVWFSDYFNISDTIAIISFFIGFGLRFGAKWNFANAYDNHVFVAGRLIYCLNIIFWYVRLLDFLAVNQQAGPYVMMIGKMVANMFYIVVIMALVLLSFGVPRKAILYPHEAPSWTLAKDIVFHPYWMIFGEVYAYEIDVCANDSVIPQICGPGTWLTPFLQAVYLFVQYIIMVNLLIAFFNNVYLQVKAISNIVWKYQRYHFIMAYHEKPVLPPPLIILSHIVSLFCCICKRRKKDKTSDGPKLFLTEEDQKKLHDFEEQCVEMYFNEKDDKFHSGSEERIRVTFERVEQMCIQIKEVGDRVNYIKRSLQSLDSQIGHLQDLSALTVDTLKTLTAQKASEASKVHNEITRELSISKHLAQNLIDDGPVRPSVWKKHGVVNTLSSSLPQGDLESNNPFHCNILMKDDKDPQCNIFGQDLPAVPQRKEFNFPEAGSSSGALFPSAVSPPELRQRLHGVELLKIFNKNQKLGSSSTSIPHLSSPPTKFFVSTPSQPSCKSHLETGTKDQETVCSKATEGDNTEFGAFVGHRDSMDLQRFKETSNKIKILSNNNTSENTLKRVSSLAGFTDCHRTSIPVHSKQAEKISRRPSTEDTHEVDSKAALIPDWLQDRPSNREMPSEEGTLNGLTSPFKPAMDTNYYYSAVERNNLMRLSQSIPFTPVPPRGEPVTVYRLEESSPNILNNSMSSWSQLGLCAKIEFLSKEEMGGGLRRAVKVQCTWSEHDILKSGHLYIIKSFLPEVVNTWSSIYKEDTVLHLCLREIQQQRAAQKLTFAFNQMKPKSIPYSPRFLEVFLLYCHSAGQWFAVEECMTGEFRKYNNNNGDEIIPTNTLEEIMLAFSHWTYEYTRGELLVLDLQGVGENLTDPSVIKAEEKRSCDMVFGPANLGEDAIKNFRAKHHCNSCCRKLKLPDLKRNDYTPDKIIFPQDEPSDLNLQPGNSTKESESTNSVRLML
T2 sequence (Q6IQ55 whole entry): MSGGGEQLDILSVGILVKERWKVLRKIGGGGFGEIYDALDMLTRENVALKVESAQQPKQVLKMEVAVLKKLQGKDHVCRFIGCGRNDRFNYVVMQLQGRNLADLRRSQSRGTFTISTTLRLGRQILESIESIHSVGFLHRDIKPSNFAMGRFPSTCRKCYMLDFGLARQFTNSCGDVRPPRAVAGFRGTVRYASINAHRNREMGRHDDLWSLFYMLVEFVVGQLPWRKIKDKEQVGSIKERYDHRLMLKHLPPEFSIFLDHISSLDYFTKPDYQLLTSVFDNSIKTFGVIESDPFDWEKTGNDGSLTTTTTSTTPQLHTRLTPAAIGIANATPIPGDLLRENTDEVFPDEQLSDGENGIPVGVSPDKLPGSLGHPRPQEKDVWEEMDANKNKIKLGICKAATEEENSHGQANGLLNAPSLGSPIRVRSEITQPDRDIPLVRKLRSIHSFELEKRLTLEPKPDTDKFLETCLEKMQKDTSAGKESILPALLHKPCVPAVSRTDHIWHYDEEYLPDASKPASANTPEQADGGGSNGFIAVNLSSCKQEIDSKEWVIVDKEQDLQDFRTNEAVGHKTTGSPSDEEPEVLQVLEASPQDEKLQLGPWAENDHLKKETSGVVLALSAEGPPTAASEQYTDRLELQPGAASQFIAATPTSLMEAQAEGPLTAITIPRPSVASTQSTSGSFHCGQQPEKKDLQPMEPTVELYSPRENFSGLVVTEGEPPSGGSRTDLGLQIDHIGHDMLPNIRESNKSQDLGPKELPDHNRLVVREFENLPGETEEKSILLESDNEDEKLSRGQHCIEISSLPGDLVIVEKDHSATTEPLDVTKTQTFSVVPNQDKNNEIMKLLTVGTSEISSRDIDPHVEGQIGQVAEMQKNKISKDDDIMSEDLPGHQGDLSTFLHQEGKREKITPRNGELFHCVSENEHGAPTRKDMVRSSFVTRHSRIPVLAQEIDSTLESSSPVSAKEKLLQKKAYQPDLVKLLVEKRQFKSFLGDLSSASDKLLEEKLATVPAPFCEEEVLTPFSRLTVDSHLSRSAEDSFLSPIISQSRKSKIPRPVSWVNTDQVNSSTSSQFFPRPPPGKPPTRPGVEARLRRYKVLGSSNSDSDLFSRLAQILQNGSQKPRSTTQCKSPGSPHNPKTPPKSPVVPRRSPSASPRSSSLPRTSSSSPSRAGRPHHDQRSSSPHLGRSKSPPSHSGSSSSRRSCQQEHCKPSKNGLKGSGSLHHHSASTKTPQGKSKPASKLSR

## CN[C@@H]1C[C@H]2O[C@@](C)([C@@H]1OC)n1c3ccccc3c3c4c(c5c6ccccc6n2c5c31)C(=O)NC4 [Staurosporine, reference compound]
PLSCR1 [1]
  Phosphorylation of PLSCR1: inhibited
[2]
  cell proliferation and viability, odu as a percentage of the DMSO control: 39.5% and 67.5%
PLSCR1 [3]
  Phosphorylation of PLSCR1: inhibited
PtdS and Akt
  translocation of PtdS and Akt to the outer leaflet of the plasma membrane: inhibited
HaCat cells [4]
  Activated caspase positive (percentage of cells): 100% and 75% and 87.5%
  SYTOX green positive (percentage of cells): 75% and 88.8% and 91.6%
HaCat cells [5]
  cytotoxicity: completely cytotoxic

## Oc1ccc(-c2nc(-c3ccncc3)c(-c3ccc(F)cc3)[nH]2)cc1 [SB202190, reference compound]
TTBK1
  IC50: 6.89e-06 M
TTBK2
  IC50: 4.31e-06 M

## c1ccc2c(-c3cnn4cc(-c5ccc(N6CCNCC6)cc5)cnc34)ccnc2c1 [LDN193189, reference compound]
TGFBR2
  IC50: 1.09e-07 M

## O=C(Nc1ccc2[nH]nc(-c3ccncc3)c2c1)[C@@H]1CCN(CC(=O)N2CCN(c3ccc(-c4ncccn4)cc3)CC2)C1 [SCH772984, reference compound]
ERK1
  IC50: 2.42e-09 M

## Apyrase [reference compound]
Akt, PDPK1, PLCγ
  HSV-induced phosphorylation of Akt and PDPK1 in non-permeabilized cells: inhibited

## CCCCCCCCCCCCCCCCn1cc[n+](Cc2ccccc2)c1C [NH125, reference compound]
TRPM7/CHAK1
  IC50: 2.34e-05 M

## Cn1cc(-c2ccc3c(c2)CCN3C(=O)Cc2cccc(C(F)(F)F)c2)c2c(N)ncnc21 [GSK-2606414, reference compound]
EIF2AK1
  IC50: 9.62e-08 M
